Test results: US10603345B2, “Pharmaceutical composition for treating respiratory disease” (Kunming Institute of Botany, The Chinese Academy of Sciences, priority 2015, dated 2020)

How the values were obtained:
Format in all cases: in vivo
[1] = system: white blood cell count and classification in BALF of COPD model mouse; experiment: Effect on white blood cell count and classification in BALF of COPD model mouse; conditions: COPD mouse (LPS plus smoke exposure 30 days), ig 7 d, dose/kg: dexamethasone 1 mg, Test group 1 50, 2 25, 3 10, picrinine 10, vallesamine 6, scholaricine 7, 19-epi-scholaricine 2 mg, x ± SD
Experimental: (§1) Animal source: 25˜30 g male ICR mouse, from laboratory animal department of Kunming Medical University, License No. SCXK (Dian) 2011-0004.
(§2) Method and route: lipopolysaccharide (LPS) plus smoke exposure was used for 30 days to induce mouse chronic obstructive pulmonary disease model; and after intragastrical administration for 7 d at a dose of 20 mL/kg, the animal was sacrificed at the eighth day.
(§3) Picrinine group (10 mg/kg), Vallesamine group (6.0 mg/kg), Scholaricine group (7.0 mg/kg), 19-epischolaricine group (2.0 mg/kg).
(§4) Sample preparation: all the samples were prepared by using 0.5% carboxymethylcellulose sodium (0.5% CMC-Na).
Group and dose: in Test group 1, the ratio of picrinine, vallesamine, scholaricine and 19-epischolaricine by weight was 48:40:29:10, and the other groups and doses thereof were as described in Example 10.
Test index: total number of white blood cells and inflammatory cell classification in bronchoalveolar lavage fluid (BALF) were used as indexes, and were determined by full-automatic hemocytometer.

[2] = system: CRP in serum in COPD model mouse; experiment: Effect on CRP in serum in COPD model mouse; conditions: ELISA, ig 7 d, dose/kg: dexamethasone 1 mg, Test group 1 50, 2 25, 3 10, picrinine 10, vallesamine 6, scholaricine 7, 19-epi-scholaricine 2 mg, x ± SD
Experimental: as §1, §2, §3, §4
Group and dose: in Test group 1, the ratio of picrinine, vallesamine, scholaricine and 19-epischolaricine by weight was 25:19:20:4, and the other groups and doses thereof were as described in Example 10.
Test index: CRP in serum was used as index, and was determined by enzyme linked immunosorbent assay.

[3] = system: SOD in serum and homogenate of COPD model mouse; experiment: Effect on SOD in serum and homogenate of COPD model mouse; conditions: ig 7 d, dose/kg: dexamethasone 1 mg, Test group 1 50, 2 25, 3 10, picrinine 10, vallesamine 6, scholaricine 7, 19-epi-scholaricine 2 mg, x ± SD
Experimental: as §1, §2, §3, §4
Group and dose: in Test group 1, the ratio of picrinine, vallesamine, scholaricine and 19-epischolaricine by weight was 16:11:12:3, and the other groups and doses thereof were as described in Example 10.
Test index: SOD in serum and lung homogenate was used as index, and was determined by xanthine oxidase method.

[4] = system: MDA in serum and homogenate of COPD model mouse; experiment: Effect on MDA in serum and homogenate of COPD model mouse; conditions: ig 7 d
Experimental: as §1, §2, §3, §4
Group and dose: in Test group 1, the ratio of picrinine, vallesamine, scholaricine and 19-epischolaricine by weight was 9:6:5:1, and the other groups and doses thereof were as described in Example 10.
Test index: MDA in serum and homogenate was used as index, and was determined by thibabituric acid method.

[5] = system: IL-4 in BALF of asthma model mouse; experiment: Effect on IL-4 in BALF of asthma model mouse; conditions: ELISA, ig 7 d, dose/kg: dexamethasone 2.0 mg, Test group 1 50, 2 25, picrinine 5.0, vallesamine 3.0, scholaricine 3.0, 19-epi-scholaricine 3.5 mg, x ± SD
Experimental: as §1
(§5) Method and route: ovalbumin (OVA) was used to induce mouse asthma model, and after intragastrical administration for 7 d at a dose of 20 mL/kg, the animal was sacrificed at the eighth day.
(§6) Test group 1: picrinine, vallesamine, scholaricine and 19-epischolaricine prepared in Example 1.7 were homogeneously mixed at different ratios by weight (50 mg/kg), Test group 2: the alkaloid composition prepared in Example 1.4 (25 mg/kg). […]
as §4
Group and dose: in Test group 1, the ratio of picrinine, vallesamine, scholaricine and 19-epischolaricine by weight was 25:18:15:3, and the other groups and doses thereof were as described in Example 11. […]

[6] = system: SOD in serum and BALF of asthma model mouse; experiment: Effect on SOD in serum and BALF of asthma model mouse; conditions: ig 7 d, dose/kg: dexamethasone 2.0 mg, Test group 1 50, 2 25, picrinine 5.0, vallesamine 3.0, scholaricine 3.0, 19-epi-scholaricine 3.5 mg, x ± SD
Experimental: as §1, §5, §6, §4
Group and dose: in Test group 1, the ratio of picrinine, vallesamine, scholaricine and 19-epischolaricine by weight was 12:10:9:2, and the other groups and doses thereof were as described in Example 11.
Test index: SOD in serum and BALF was used as index, and was determined by xanthine oxidase method.

[7] = system: MDA in serum and BALF of asthma model mouse; experiment: Effect on MDA in serum and BALF of asthma model mouse; conditions: ig 7 d, dose/kg: dexamethasone 2.0 mg, Test group 1 50, 2 25, picrinine 5.0, vallesamine 3.0, scholaricine 3.0, 19-epi-scholaricine 3.5 mg, x ± SD
Experimental: as §1, §5, §6, §4
Group and dose: in Test group 1, the ratio of picrinine, vallesamine, scholaricine and 19-epischolaricine by weight was 8:6:5:1, and the other groups and doses thereof were as described in Example 11.
Test index: MDA in serum and BALF was used as index, and was determined by thiobarbituric acid method.

[8] = system: LDH in serum of pulmonary fibrosis model mouse; experiment: Effect on LDH in serum of pulmonary fibrosis model mouse; conditions: bleomycin pulmonary fibrosis mouse, ig 28 d, dose/kg: prednisone acetate 5 mg, Test group 1 50, 2 25, 3 12.5, picrinine 5.0, vallesamine 3.0, scholaricine 3.5, 19-epi-scholaricine 1.0 mg, x ± SD
Experimental: (§7) Animal source: 30˜35 g male ICR mouse, from laboratory animal department of Kunming Medical University, License No. SCXK (Dian) 2011-0004.
(§8) Method and route: bleomycin was used to induce mouse pulmonary fibrosis, and after intragastrical administration for 28 d at a dose of 20 mL/kg, the animal was sacrificed at the 29th day.
(§9) Group and dose: Sham group, Model group, Positive control group, prednisone acetate (5 mg/kg) group, Test group 1: picrinine, vallesamine, scholaricine and 19-epischolaricine prepared in Example 1.7 were mixed at different ratios by weight (50 mg/kg), Test group 2: the alkaloid composition (25 mg/kg) prepared in Example 1.5, Test group 3: the alkaloid composition (12.5 mg/kg) prepared in Example 1.6, Picrinine group (5.0 mg/kg), Vallesamine group (3.0 mg/kg), Scholaricine group (3.5 mg/kg), and 19-epischolaricine group (1.0 mg/kg).
(§10) Positive control drug: prednisone acetate tablet, Approval number: H33021207, 5 mg/tablet, produced by Zhejiang Xianju Pharmaceutical Co., Ltd., Batch No. 140146.
(§11) Sample preparation: all the samples were prepared by using 0.5% carboxymethylcellulose sodium (0.5% CMC-Na). […]
Test index: LDH in serum was used as index, and was determined by 2, 4-dinitrophenylhydrazine method.

[9] = system: Hyp in homogenate of pulmonary fibrosis model mouse; experiment: Effect on Hyp in homogenate of pulmonary fibrosis model mouse; conditions: bleomycin pulmonary fibrosis mouse, ig 28 d, dose/kg: prednisone acetate 5 mg, Test group 1 50, 2 25, 3 12.5, picrinine 5.0, vallesamine 3.0, scholaricine 3.5, 19-epi-scholaricine 1.0 mg, x ± SD
Experimental: as §7, §8, §9, §10, §11
Test index: Hyp in homogenate was used as index, and was determined by enzyme linked immunosorbent assay.

Structure (SMILES): COC(=O)C1=C2Nc3c(O)cccc3[C@@]23CCN2C[C@@H]([C@@H](C)O)[C@@H]1C[C@H]23 [scholaricine]
- Leukocyte number [1]: 2.5 ± 3.5 ×10^5/mL
- Neutrophil number [1]: 0.66 ± 0.81 ×10^5/mL
- CRP [2]: 24.4 ± 2.4 pg/mL
- SOD homogenate ([3]; lung homogenate): 58.43 ± 7.04 U/mL
- SOD Serum ([3]; serum): 93.61 ± 12.37 U/mL
- content of MDA (serum or homogenate not given) ([4]; vallesamine 6, scholaricine 7, 19-epi-scholaricine 2 mg/kg): significantly decrease
- MDA Homogenate ([4]; lung homogenate, dose/kg: dexamethasone 1 mg, Test group 1 50, 2 25, 3 10, picrinine 10, vallesamine 6, scholaricine 7, 19-epi-scholaricine 2 mg, x ± SD): 6.09 ± 1.25 nmol/mL
- MDA Serum ([4]; serum, dose/kg: dexamethasone 1 mg, Test group 1 50, 2 25, 3 10, picrinine 10, vallesamine 6, scholaricine 7, 19-epi-scholaricine 2 mg, x ± SD): 12.21 ± 3.38 nmol/mL
- IL-4 [5]: 11.21 ± 3.62 pg/mL
- SOD lavage fluid ([6]; BALF): 76.78 ± 8.01 U/mL
- SOD Serum ([6]; serum): 73.36 ± 8.44 U/mL
- MDA lavage fluid ([7]; BALF): 2.43 ± 1.05 nmol/mL
- MDA Serum ([7]; serum): 9.19 ± 2.77 nmol/mL
- LDH [8]: 12.5 ± 3.2 U/g prot
- Hyp [9]: 6.5 ± 1.5 μg/g prot
